Test results taken from patent US5583147A, “Amides for the treatment of atherosclerosis” (The Dupont Merck Pharmaceutical Company, priority 1994, dated 1996).
pIC50: −log10 of the molar value.

Target: T1, Acyl-CoA: Cholesterol Acyltransferase (ACAT) (Rattus norvegicus, UniProt Q7TQM4)
T1 construct: centrifuged at 105,000×g for 1 hour to pellet the microsomes; from tissue; host or cells: liver microsomes of male Sprague Dawley rats
T1 sequence (Q7TQM4 1-524): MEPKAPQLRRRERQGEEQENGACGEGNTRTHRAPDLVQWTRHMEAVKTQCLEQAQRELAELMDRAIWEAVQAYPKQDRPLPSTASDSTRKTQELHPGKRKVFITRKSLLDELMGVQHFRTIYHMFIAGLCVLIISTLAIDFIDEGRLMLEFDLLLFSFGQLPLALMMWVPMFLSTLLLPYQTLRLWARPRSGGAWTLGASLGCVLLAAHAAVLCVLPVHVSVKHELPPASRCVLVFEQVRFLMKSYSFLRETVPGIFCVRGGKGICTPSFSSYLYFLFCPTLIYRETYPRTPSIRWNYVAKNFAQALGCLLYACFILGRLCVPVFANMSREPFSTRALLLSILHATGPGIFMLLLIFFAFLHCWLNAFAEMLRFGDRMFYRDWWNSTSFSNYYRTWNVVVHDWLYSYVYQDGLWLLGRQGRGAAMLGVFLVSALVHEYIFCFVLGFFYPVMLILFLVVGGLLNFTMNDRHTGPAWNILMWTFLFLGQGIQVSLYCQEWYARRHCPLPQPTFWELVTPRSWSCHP
Experiment: Inhibition of Acyl-CoA: Cholesterol Acyltransferase (ACAT) in Hepatic Microsomes (In Vitro Assay)
Assay type: biochemical, rat (male Sprague Dawley)
Settings: 75 μM 14C-oleoyl-CoA, pH 7.4, 37° C., 10 min, read-out: ACAT Inhibitory Activity (In Vitro) (IC50)
Experimental: A. Assay of the Inhibition of Acyl-CoA: Cholesterol Acyltransferase (ACAT) in Hepatic Microsomes (In Vitro Assay)
The ability of the compounds to inhibit ACAT, the enzyme responsible for the intracellular synthesis of cholesteryl esters, was tested as follows. Male Sprague Dawley rats weighing 150-300 g, were fed rat chow ad libitum. The animals were fasted for twenty-four hours prior to being euthanized by CO2. The livers were perfused in situ with 50 ml of cold 0.25 sucrose, excised, and homogenized in three volumes of 0.1M phosphate buffer, pH 7.4, that contained 0.5 mM EDTA (ethylenediamine-tetraacetic acid), 1.0 mM glutathione, 0.25M sucrose and […] leupeptin. Microsomes were obtained by differential centrifugation; the supernatant from an initial spin at 15,000×g for 15 minutes was centrifuged at 105,000×g for 1 hour to pellet the microsomes. The microsomes were suspended in homogenization buffer, reisolated by centrifugation, and stored at -70° C. Microsomes were used within one month of preparation.
The control assay in a final volume of 200 μl consisted of 200 μg of microsomal protein, 75 μM ^14 C-oleoyl-CoA (10,000 dpm/nmol) in 0.1M phosphate, pH 7.4, that contained 1 mM glutathione. Compounds were added in 5 μl of DMSO (dimethyl sulfoxide) and additional controls were run with DMSO only. All components, except the oleoyl-CoA, were preincubated for 15 min. at 37° C. prior to the initiation of the reaction by the addition of oleoyl-CoA. The assay was terminated after 10 min by the addition of 4 ml of chloroform:methanol (2:1, v/v). 20,000 dpm of ^3 H-cholesteryl oleate and 10 μg of unlabeled cholesteryl oleate and oleic acid were added as an internal standard and carriers, respectively. After allowing 10 min. for lipid extraction, the samples were centrifuged at 1,000×g for 10 min to separate the solvent layers. The chloroform layer containing the neutral lipids was spotted onto a Baker SI250-Pa silica gel TLC plate and the plate developed using a hexane:diethyl ether:acetic acid (170:30:1) v/v/v) mobile phase. The lipids were visualized by their interaction with iodine vapor and the cholesteryl ester spot was scraped into a scintillation vial and counted. The specific activity of ACAT in the control incubation averaged 260 pmol/min/mg microsomal protein. The data obtained are expressed as the concentration at which ACAT activity is inhibited by 50% (IC50).

pIC50 | SMILES
> 6.00 | CCCCCCSC(C(=O)Nc1c(SC)cc(C)nc1SC)c1ccccc1 (single isomer, unassigned) [Example 41, N-[2,4-bis(methylthio)-6-methyl-3-pyridyl]-L-(+)-α-hexylthio-phenylacetamide]
> 6.00 | COc1ccc(C(Sc2ccccc2)C(=O)Nc2c(SC)cc(C)nc2SC)cc1 (stereo not drawn) [Example 135, N-[2,4-bis(methylthio)-6-methyl-3-pyridyl]-α-phenylthio-4-methoxy-phenylacetamide]
> 6.00 | CCCCCCSC(C(=O)Nc1c(SC)cc(C)nc1SC)c1cccc(Oc2ccccc2)c1 (stereo not drawn) [Example 316, N-[2,4-bis(methylthio)-6-methyl-3-pyridyl]-α-hexylthio-3-phenoxy-phenylacetamide]
5.00 to 6.00 | COc1ccc(C(OC)C(=O)Nc2c(SC)cc(C)nc2SC)cc1 (stereo not drawn) [Example 146, N-[2,4-bis(methylthio)-6-methyl-3-pyridyl]-α-O-methyl-4-methoxymandeloamide]
> 6.00 | COc1ccc(CSC(C(=O)Nc2c(SC)cc(C)nc2SC)c2ccc(Cl)cc2)cc1 (stereo not drawn) [Example 90, N-[2,4-bis(methylthio)-6-methyl-3-pyridyl]-α-(4-methoxy-benzylthio)-4-chloro-phenylacetamide]
> 6.00 | COc1ccc(CSC(C(=O)Nc2c(SC)cc(C)nc2SC)c2ccc(Cl)c(Cl)c2)cc1 (stereo not drawn) [Example 182, N-[2,4-bis(methylthio)-6-methyl-3-pyridyl]-α-(4-methoxy-benzylthio)-3,4-dichloro-phenylacetamide]
> 6.00 | CCCCCCSC(C(=O)Nc1c(SC)cc(C)nc1SC)c1ccc(C(F)(F)F)cc1 (stereo not drawn) [Example 375, N-[2,4-bis(methylthio)-6-methyl-3-pyridyl]-α-hexylthio-4-trifluoromethyl-phenylacetamide]
> 6.00 | CCCCCCSC(C(=O)Nc1c(SC)cc(C)nc1SC)c1ccc(F)cc1 (stereo not drawn) [Example 148, N-[2,4-bis(methylthio)-6-methyl-3-pyridyl]-α-hexylthio-4-fluoro-phenylacetamide]
> 6.00 | COc1ccc(SC(C(=O)Nc2c(SC)cc(C)nc2SC)c2ccc(Cl)cc2)cc1 (stereo not drawn) [Example 103, N-[2,4-bis(methylthio)-6-methyl-3-pyridyl]-α-(4-methoxy-phenylthio)-4-chloro-phenylacetamide]
> 6.00 | CCCCCCSC(C(=O)Nc1c(SC)cc(C)nc1SC)c1ccc2c(c1)OCO2 (stereo not drawn) [Example 515, N-[2,4-bis(methylthio)-6-methyl-3-pyridyl]-α-hexylthio-3,4-methylenedioxyphenylacetamide]
> 6.00 | CCCCCCSC(C(=O)Nc1c(SC)cc(C)nc1SC)c1ccc([N+](=O)[O-])cc1 (stereo not drawn) [Example 487, N-[2,4-bis(methylthio)-6-methyl-3-pyridyl]-α-hexylthio-4-nitro-phenylacetamide]
> 6.00 | COc1ccc(C(Sc2ccc(F)cc2)C(=O)Nc2c(SC)cc(C)nc2SC)cc1 (stereo not drawn) [Example 136, N-[2,4-bis(methylthio)-6-methyl-3-pyridyl]-α-(4-fluoro-phenylthio)-4-methoxy-phenylacetamide]
> 6.00 | COc1ccc(SC(C(=O)Nc2c(SC)cc(C)nc2SC)c2ccc(F)cc2)cc1 (stereo not drawn) [Example 167, N-[2,4-bis(methylthio)-6-methyl-3-pyridyl]-α-(4-methoxy-phenylthio)-4-fluoro-phenylacetamide]
> 6.00 | COc1ccc(C(SCc2ccccc2)C(=O)Nc2c(SC)cc(C)nc2SC)cc1 (stereo not drawn) [Example 122, N-[2,4-bis(methylthio)-6-methyl-3-pyridyl]-α-benzylthio-4-methoxy-phenylacetamide]
> 6.00 | CCCCCCSC(C(=O)Nc1c(SC)cc(C)nc1SC)c1ccc(OC)cc1 (stereo not drawn) [Example 118, N-[2,4-bis(methylthio)-6-methyl-3-pyridyl]-α-hexylthio-4-methoxy-phenylacetamide]
> 6.00 | COc1ccc(CSC(C(=O)Nc2c(SC)cc(C)nc2SC)c2ccc(OC)cc2)cc1 (stereo not drawn) [Example 125, N-[2,4-bis(methylthio)-6-methyl-3-pyridyl]-α-(4-methoxy-benzylthio)-4-methoxy-phenylacetamide]

Further lines, the compound ahead of its results:

SMILES | pIC50
CSc1cc(C)nc(SC)c1NC(=O)C(SCc1ccccc1)c1ccc(Cl)c(Cl)c1 (stereo not drawn) [Example 180, N-[2,4-bis(methylthio)-6-methyl-3-pyridyl]-α-benzylthio-3,4-dichloro-phenylacetamide] | > 6.00
CSc1cc(C)nc(SC)c1NC(=O)C(Sc1ccc(F)cc1)c1ccc(F)cc1 (stereo not drawn) [Example 166, N-[2,4-bis(methylthio)-6-methyl-3-pyridyl]-α-(4-fluoro-phenylthio)-4-fluoro-phenylacetamide] | > 6.00
CSc1cc(C)nc(SC)c1NC(=O)C(SCc1ccc(C(C)(C)C)cc1)c1ccc(C(C)(C)C)cc1 (stereo not drawn) [Example 439, N-[2,4-bis(methylthio)-6-methyl-3-pyridyl]-α-(4-tert-butyl-benzylthio)-4-tert-butylphenylacetamide] | > 6.00
CSc1cc(C)nc(SC)c1NC(=O)C(Sc1ccccc1)c1ccc(Cl)cc1 (stereo not drawn) [Example 102, N-[2,4-bis(methylthio)-6-methyl-3-pyridyl]-α-phenylthio-4-chloro-phenylacetamide] | > 6.00
CSc1cc(C)nc(SC)c1NC(=O)C(SCc1ccc(Cl)cc1)c1cccc(Oc2ccc(Br)cc2)c1 (stereo not drawn) [Example 326, N-[2,4-bis(methylthio)-6-methyl-3-pyridyl]-α-(4-chloro-benzylthio)-3-(4'-bromophenoxy)-phenylacetamide] | > 6.00
CSc1cc(C)nc(SC)c1NC(=O)C(SCc1ccc(F)cc1)c1ccc(F)cc1 (stereo not drawn) [Example 153, N-[2,4-bis(methylthio)-6-methyl-3-pyridyl]-α-(4-fluoro-benzylthio)-4-fluoro-phenylacetamide] | > 6.00
CSc1cc(C)nc(SC)c1NC(=O)C(SCc1ccc(Cl)cc1)c1cccc(Oc2ccccc2)c1 (stereo not drawn) [Example 325, N-[2,4-bis(methylthio)-6-methyl-3-pyridyl]-α-(4-chloro-benzylthio)-3-phenoxy-phenylacetamide] | > 6.00
CC(C)c1cccc(C(C)C)c1NC(=O)C(Sc1ccccc1)c1ccccc1 (single isomer, unassigned) [Example 64] | 5.00 to 6.00
CCCCOc1ccc(CSC(C(=O)Nc2c(SC)cc(C)nc2SC)c2ccc(-c3ccccc3)cc2)cc1 (stereo not drawn) [Example 467, N-[2,4-bis(methylthio)-6-methyl-3-pyridyl]-α-(4-butoxy-benzylthio)-4-biphenylacetamide] | > 6.00
CSc1cc(C)nc(SC)c1NC(=O)C(SCc1ccccc1)c1ccc(F)cc1 (stereo not drawn) [Example 152, N-[2,4-bis(methylthio)-6-methyl-3-pyridyl]-α-benzylthio-4-fluoro-phenylacetamide] | > 6.00
CSc1cc(C)nc(SC)c1NC(=O)C(SCc1ccccc1)c1ccc(-c2ccccc2)cc1 (stereo not drawn) [Example 463, N-[2,4-bis(methylthio)-6-methyl-3-pyridyl]-α-benzylthio-4-biphenylacetamide] | > 6.00
COc1ccc(C(SCc2ccc(F)cc2)C(=O)Nc2c(SC)cc(C)nc2SC)cc1OC (stereo not drawn) [Example 237, N-[2,4-bis(methylthio)-6-methyl-3-pyridyl]-α-(4-fluoro-benzylthio)-3,4-dimethoxy-phenylacetamide] | > 6.00
CCSC(C(=O)Nc1c(SC)cc(C)nc1SC)c1ccccc1 (single isomer, unassigned) [Example 50, N-[2,4-bis(methylthio)-6-methyl-3-pyridyl]-L-(+)-α-ethylthio-phenylacetamide] | > 6.00
CC(C)c1cccc(C(C)C)c1NC(=O)C(SCc1ccccc1)c1ccccc1 (single isomer, unassigned) [Example 48, N-(2,6-diisopropyl-phenyl)-D-(-)-α-benzylthio-phenylacetamide] | > 6.00
